Test results reported in paper PMC7076669 (Pharmaceutics, 2020).
In brackets after ≈: the same amount, converted by molar mass. Read-outs that look alike come from different tables or passages of the source.

What was measured:
[1] = Visual solubility of ibuprofen in liquid excipients; format: physicochemical; conditions: for Ibuprofen Solubility in Excipient: visual solubility
Description: In this method, the excipients were accurately weighed (2.5 g) in individually-labelled 20 mL scintillation vials. […] Further, the vials were placed in a shaking water bath (Fisher Scientific, Waltham, MA, USA) maintained at 25 °C for at least 15 min to allow proper mixing.

[2] = cited from earlier work
[3] = in MCT 70 (medium chain triglycerides), 25 °C
[4] = in oleyl alcohol (Kollicream OA), 25 °C
[5] = in propylene glycol (Kollicream PG), 25 °C

- Ibuprofen solubility, Percentage ([1]; in Kolliphor PS 80, 25 °C): 18%
- Ibuprofen Solubility in Excipient ([1]; in Kolliphor PS 80, 25 °C): 180 mg/g
- Ibuprofen solubility, Percentage [1, 3]: 14%
- Ibuprofen Solubility in Excipient [1, 3]: 140 mg/g
- Ibuprofen solubility, Percentage ([1]; in PEG 400, 25 °C): 19%
- Ibuprofen Solubility in Excipient ([1]; in PEG 400, 25 °C): 190 mg/g
- Ibuprofen solubility, Percentage ([1]; in Transcutol, 25 °C): 30%
- Ibuprofen Solubility in Excipient ([1]; in Transcutol, 25 °C): 300 mg/g
- Ibuprofen solubility, Percentage ([1]; in glycerol, 25 °C): 0.4%
- Ibuprofen Solubility in Excipient ([1]; in glycerol, 25 °C): 4 mg/g
- Ibuprofen solubility, Percentage ([1]; in isopropyl myristate, 25 °C): 20%
- Ibuprofen Solubility in Excipient ([1]; in isopropyl myristate, 25 °C): 200 mg/g
- Ibuprofen solubility, Percentage ([1]; in mineral oil, 25 °C): 6%
- Ibuprofen Solubility in Excipient ([1]; in mineral oil, 25 °C): 60 mg/g
- Ibuprofen solubility, Percentage [1, 4]: 18%
- Ibuprofen Solubility in Excipient [1, 4]: 180 mg/g
- Ibuprofen solubility, Percentage [1, 5]: 30%
- Ibuprofen Solubility in Excipient [1, 5]: 300 mg/g
SMILES: CC(C)Cc1ccc(C(C)C(=O)O)cc1 (stereo not drawn) [Ibuprofen, α-methyl-4-(2-methylpropyl) benzeneacetic acid]
- aqueous solubility ([2]; pH 4.5): 0.084 µg/mL (≈ 0.407 µM)
- aqueous solubility ([2]; pH 5.54): 0.685 µg/mL (≈ 3.32 µM)
